# According to US4658029A, “1-Hpyrazolo[3,4-b]pyridines” (Hoechst-Roussel Pharmaceuticals Inc., priority 1986, dated 1987):
# Tested on: spontaneous hypertensive rat
# Experiment: Antihypertensive activity in the spontaneous hypertensive rat (SHR), indirect tail cuff method
# Assay type: in vivo
# Settings: 50 mg/kg, PO, treated orally for three days, drop measured on third day
# Protocol: The 6H-isoxazolo[5,4-d]pyrazolo[…] of formula I of the present invention are useful as antihypertensive agents due to their ability to depress blood pressure in mammals. Antihypertensive activity is measured in the spontaneous hypertensive rat by the indirect tail cuff method described in "Methods in Pharmacology", A. Schwartz, Ed., Vol. I, Appleton-Century Crofts, New York, N.Y., 1971, p. 135. In this procedure a group of five animals are treated orally for three days with the test compound in relation to a control group of the same number. The drop in blood pressure is measured on the third day following administration. The antihypertensive activities of some of the compounds, expressed as a decrease in mean arterial blood pressure (in mmHg), are given in Table I.
row,Compound,Antihypertensive SHR (decrease in mean arterial blood pressure) [mmHg]
1,"C[C@](N)(Cc1ccc(O)c(O)c1)C(=O)O [alpha-Methyldopa, reference compound]",40
2,"CCn1ncc2c3onc(-c4ccc(OC)cc4)c3cnc21 [6-Ethyl-3-(4-methoxyphenyl)-6H-isoxazolo[5,4-d]pyrazolo[3,4-b]pyridine]",31
3,"CCn1ncc2c3onc(-c4cccc(C)c4)c3cnc21 [6-Ethyl-3-(3-tolyl)-6H-isoxazolo[5,4-d]pyrazolo[3,4-b]pyridine]",33
4,"CCn1ncc2c3onc(-c4ccc(Cl)cc4)c3cnc21 [3-(4-Chlorophenyl)-6-ethyl-6H-isoxazolo[5,4-d]pyrazolo[3,4-b]pyridine]",62

# Tested on: 2-phenyl-1,4-benzoquinone-induced writhing
# Experiment: 2-phenyl-1,4-benzoquinone-induced writhing test in mice (analgesic activity, PQW)
# Assay type: in vivo
# Settings: 20 mg/kg, SC
row,Compound,"Analgesic PQW, % decrease (phenylquinone writhing) [%]"
1,"CCn1ncc2c3onc(-c4cccc(O)c4)c3cnc21 [6-Ethyl-3-(3-hydroxyphenyl)-6H-isoxazolo[5,4-d]pyrazolo[3,4-b]pyridine]",48
2,"6-Ethyl-3-tolyl-6H-isoxazolo[5,4-d]pyrazolo[3,4-b]pyridine",48
3,"CCn1ncc2c3onc(-c4ccc(F)cc4)c3cnc21 [6-Ethyl-3-(4-fluorophenyl)-6H-isoxazolo[5,4-d]pyrazolo[3,4-b]pyridine]",31
4,"CCn1ncc2c3onc(-c4ccccn4)c3cnc21 [6-Ethyl-3-(2-pyridyl)-6H-isoxazolo[5,4-d]pyrazolo[3,4-b]pyridine]",42
5,"CCn1ncc2c3onc(-c4cccc(F)c4)c3cnc21 [6-Ethyl-3-(3-fluorophenyl)-6H-isoxazolo[5,4-d]pyrazolo[3,4-b]pyridine]",55

# Same assay, conditions: Mus musculus, sc, prior art compound, read-out: ED50 (phenylquinone writhing)
row,Compound,ED50 [mg/kg]
1,"CCC(=O)O[C@](Cc1ccccc1)(c1ccccc1)[C@H](C)CN(C)C [Propoxyphene, reference compound]",3.9
